Key:
Type in all cases: in vivo
[1] = test system: Abutilon theophrasti (ABUTH); test: Post-emergence herbicidal action, greenhouse pot test; conditions: rated visually after about 3 weeks vs untreated controls, 100% = plants have died
Summary of the method: (§1)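 Greenhouse-grown weeds in sandy loam were sprayed post-emergence at the one-leaf stage, 2–3 weeks after sowing. Compounds were formulated as WP or EC in water with 0.5% additive at 600 l/ha, at rates of 20 g/ha or less. Visual rating after about 3 weeks used a scale from 0% (like untreated control) to 100% (plants dead).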

[2] = test system: Amaranthus retroflexus (AMARE); test: as above; conditions: rated visually after about 3 weeks vs untreated controls, 100% = plants have died
Summary of the method: as §1

Avena fatua (AVEFA) = test: as above; conditions: 20 g/ha, rated visually after about 3 weeks vs untreated controls, 100% = plants have died
Summary of the method: as §1

Lolium rigidum (LOLRI) = test: as above; conditions: dosage 20 g/ha
Summary of the method: as §1

[3] = test system: Pharbitis purpurea (PHBPU); test: as above
Summary of the method: as §1

[4] = test system: Polygonum convolvulus (POLCO); test: as above
Summary of the method: as §1

Veronica persica (VERPE) = test: as above
Summary of the method: as §1

Viola tricolor (VIOTR) = test: as above
Summary of the method: as §1

[5] = test system: Alopecurus myosuroides (ALOMY); test: Post-emergence herbicidal action, greenhouse pot test (also comparative test C); conditions: rated visually after about 3 weeks vs untreated controls, 100% = plants have died
Summary of the method: (§2)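 Green parts of one-leaf-stage plants are sprayed at 600 l/ha with formulated compound plus 0.5% additive, then kept under optimum greenhouse conditions for about 3 weeks. Damage is scored visually, where 100% means dead plants and 0% means no difference from controls.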

[6] = test system: Echinochloa crus-galli (ECHCG); test: as above; conditions: for Post-emergence action at 1.25 g/ha against ECHCG in %: rated visually after about 3 weeks vs untreated controls, 100% = plants have died
Summary of the method: as §2

[7] = test system: Matricaria inodora (MATIN); test: as above
Summary of the method: as §2

Setaria viridis (SETVI) = test: as above; conditions: for Post-emergence action against SETVI: 20 g/ha
Summary of the method: as §2

Zea mays (ZEAMX) = test: Post-emergence crop plant compatibility, greenhouse pot test; conditions: 1.25 g/ha, vs untreated controls
Summary of the method: (§3)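 Seeds are sown in sandy loam and grown under controlled greenhouse conditions. At the one-leaf stage (2–3 weeks), foliage is sprayed with the formulated compound in water containing 0.5% additive at 600 l/ha. About 3 weeks later, injury is rated visually in % against untreated plants.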

Oryza sativa (ORYSA) = test: Post-emergence crop plant compatibility, greenhouse pot test (also comparative test C); conditions: vs untreated controls
Summary of the method: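 Rice and other crops sprayed post-emergence at one-leaf stage (2–3 weeks after sowing) with WP or EC formulations plus 0.5% additive at 600 l/ha water. Visual rating about 3 weeks later versus untreated controls (100% = dead, 0% = like control); suffixes a–c denote different doses.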

[8] = test system: Triticum aestivum (TRZAS); test: Post-emergence crop plant compatibility, greenhouse pot test; conditions: vs untreated controls
Summary of the method: as §3

Row | SMILES | Post-emergence action at 1.25 g/ha against ABUTH in % [1] [%] | Post-emergence action at 5 g/ha against ABUTH in % [1] [%] | Post-emergence action at 20 g/ha against ABUTH in % [1] [%] | Post-emergence action at 1.25 g/ha against AMARE in % [2] [%] | Post-emergence action at 5 g/ha against AMARE in % [2] [%] | Post-emergence action at 20 g/ha against AMARE in % [2] [%] | Post-emergence action at 20 g/ha against AVEFA in % (Avena fatua (AVEFA)) [%] | Post-emergence action against LOLRI in % (Lolium rigidum (LOLRI)) [%] | Post-emergence action against PHBPU in % ([3]; dosage 1.25 g/ha) [%] | Post-emergence action against PHBPU in % ([3]; dosage 5 g/ha) [%] | Post-emergence action against PHBPU in % ([3]; dosage 20 g/ha) [%] | Post-emergence action against POLCO in % ([4]; dosage 5 g/ha) [%] | Post-emergence action against POLCO in % ([4]; dosage 20 g/ha) [%] | Post-emergence action against VERPE (Veronica persica (VERPE); 1.25 g/ha) [%] | Post-emergence action against VERPE (Veronica persica (VERPE); 5 g/ha) [%] | Post-emergence action against VERPE (Veronica persica (VERPE); 20 g/ha) [%] | Post-emergence action against VIOTR (Viola tricolor (VIOTR); 1.25 g/ha) [%] | Post-emergence action against VIOTR (Viola tricolor (VIOTR); 5 g/ha) [%] | Post-emergence action against VIOTR (Viola tricolor (VIOTR); 20 g/ha) [%] | Post-emergence action at 5 g/ha against ALOMY in % [5] [%] | also measured
1 | CCOCCOC(=O)COc1ccccc1Oc1cc(-n2c(=O)cc(C(F)(F)F)n(C)c2=O)c(F)cc1Br [I.8-2] | 100 | 100 | 100 | 100 | 100 | 100 | 100 | 90 | 100 | 100 | 100 | 100 | 100 | 100 | 100 | 100 | 100 | 100 | 100 | 100 | Post-emergence action at 1.25 g/ha against ALOMY in % ([5]; 1.25 g/ha): 80%; Post-emergence action at 20 g/ha against ALOMY in % [5]: 100%; Post-emergence action against ECHCG in % ([6]; dosage 5 g/ha): 100%; Post-emergence action against ECHCG in % ([6]; dosage 20 g/ha): 100%; Post-emergence action against MATIN in % ([7]; dosage 1.25 g/ha): 100%; Post-emergence action against MATIN in % ([7]; dosage 5 g/ha): 100%; Post-emergence action against MATIN in % ([7]; dosage 20 g/ha): 100%; Post-emergence action against SETVI (Setaria viridis (SETVI)): 100%; Post-emergence action against SETVI in % (Setaria viridis (SETVI); dosage 1.25 g/ha): 100%; Post-emergence action against SETVI in % (Setaria viridis (SETVI); dosage 5 g/ha): 100%; Post-emergence action against ZEAMX (crop plant compatibility) (Zea mays (ZEAMX)): 20%; Post-emergence action against ORYSA (crop plant compatibility) (Oryza sativa (ORYSA); 1.25 g/ha): 0%; Post-emergence action against ORYSA (crop plant compatibility) (Oryza sativa (ORYSA); 5 g/ha): 0%
2 | COCCOC(=O)COc1ccccc1Oc1cc(-n2c(=O)cc(C(F)(F)F)n(C)c2=O)c(F)cc1Br [I.8-1] | 100 | 100 | 100 | 100 | 100 | 100 | 80 | 80 | 100 | 100 | 100 | 100 | 100 | 100 | 100 | 100 | 100 | 100 | 100 | 100 | Post-emergence action against POLCO in % ([4]; dosage 1.25 g/ha): 90%; Post-emergence action at 20 g/ha against ALOMY in % [5]: 100%; Post-emergence action at 1.25 g/ha against ECHCG in % [6]: 80%; Post-emergence action against ECHCG in % ([6]; dosage 5 g/ha): 100%; Post-emergence action against ECHCG in % ([6]; dosage 20 g/ha): 100%; Post-emergence action against MATIN in % ([7]; dosage 1.25 g/ha): 100%; Post-emergence action against MATIN in % ([7]; dosage 5 g/ha): 100%; Post-emergence action against MATIN in % ([7]; dosage 20 g/ha): 100%; Post-emergence action against SETVI (Setaria viridis (SETVI)): 100%; Post-emergence action against SETVI in % (Setaria viridis (SETVI); dosage 1.25 g/ha): 100%; Post-emergence action against SETVI in % (Setaria viridis (SETVI); dosage 5 g/ha): 100%; Post-emergence action against TRZAS (crop plant compatibility) ([8]; 1.25 g/ha): 20%; Post-emergence action against ZEAMX (crop plant compatibility) (Zea mays (ZEAMX)): 20%; Post-emergence action against ORYSA (crop plant compatibility) (Oryza sativa (ORYSA); 1.25 g/ha): 0%; Post-emergence action against ORYSA (crop plant compatibility) (Oryza sativa (ORYSA); 5 g/ha): 20%
3 | Cn1c(C(F)(F)F)cc(=O)n(-c2cc(Oc3ccccc3OCC(=O)OCc3ccccn3)c(Br)cc2F)c1=O [I.8-276] | 100 | 100 | 100 | 100 | 100 | 100 | 80 | 100 | 100 | 100 | 100 | 100 | 100 | 100 | 100 | 100 | 100 | 100 | 100 | 80 | Post-emergence action at 20 g/ha against ALOMY in % [5]: 100%; Post-emergence action against ECHCG in % ([6]; dosage 5 g/ha): 100%; Post-emergence action against ECHCG in % ([6]; dosage 20 g/ha): 100%; Post-emergence action against MATIN in % ([7]; dosage 1.25 g/ha): 80%; Post-emergence action against MATIN in % ([7]; dosage 5 g/ha): 80%; Post-emergence action against MATIN in % ([7]; dosage 20 g/ha): 100%; Post-emergence action against SETVI (Setaria viridis (SETVI)): 100%; Post-emergence action against SETVI in % (Setaria viridis (SETVI); dosage 1.25 g/ha): 100%; Post-emergence action against SETVI in % (Setaria viridis (SETVI); dosage 5 g/ha): 100%; Post-emergence action against TRZAS (crop plant compatibility) ([8]; 1.25 g/ha): 20%; Post-emergence action against TRZAS (crop plant compatibility) ([8]; 5 g/ha): 20%; Post-emergence action against ZEAMX (crop plant compatibility) (Zea mays (ZEAMX)): 20%; Post-emergence action against ORYSA (crop plant compatibility) (Oryza sativa (ORYSA); 1.25 g/ha): 20%
4 | Cn1c(C(F)(F)F)cc(=O)n(-c2cc(Oc3ccccc3OCC(=O)OCc3ccncc3)c(Cl)cc2F)c1=O [I.7-278] | 100 | 100 | 100 | 100 | 100 | 100 | 80 | 80 | 100 | 100 | 100 | 80 | 100 | 100 | 100 | 100 | 90 | 100 | 100 | 90 | Post-emergence action at 20 g/ha against ALOMY in % [5]: 100%; Post-emergence action at 1.25 g/ha against ECHCG in % [6]: 80%; Post-emergence action against ECHCG in % ([6]; dosage 5 g/ha): 100%; Post-emergence action against ECHCG in % ([6]; dosage 20 g/ha): 100%; Post-emergence action against MATIN in % ([7]; dosage 5 g/ha): 80%; Post-emergence action against MATIN in % ([7]; dosage 20 g/ha): 100%; Post-emergence action against SETVI (Setaria viridis (SETVI)): 100%; Post-emergence action against SETVI in % (Setaria viridis (SETVI); dosage 1.25 g/ha): 100%; Post-emergence action against SETVI in % (Setaria viridis (SETVI); dosage 5 g/ha): 100%; Post-emergence action against ZEAMX (crop plant compatibility) (Zea mays (ZEAMX)): 0%; Post-emergence action against ORYSA (crop plant compatibility) (Oryza sativa (ORYSA); 1.25 g/ha): 0%

Reference: US20240025862A1, “SUBSTITUTED N-PHENYLURACILS AND SALTS THEREOF, AND USE THEREOF AS HERBICIDAL ACTIVE SUBSTANCES” (Bayer Aktiengesellschaft, priority 2020, published 2024)
